Assay results: patent US9206156B2, “Substituted indole derivatives” (GRÜNENTHAL GMBH, priority 2008, dated 2015)

Assays:
ORL1 receptor = biological target: T1, ORL1 receptor (Homo sapiens, UniProt P41146); test: ORL1 receptor binding assay with 3H-nociceptin/orphanin FQ (WGA-SPA beads); conditions: c=1 μM test substance; 0.5 nM 3H-nociceptin/orphanin FQ; membranes of recombinant CHO-ORL1 cells
T1 construct: expressed in transfected cells; host or cells: CHO (recombinant CHO-ORL1 cells), membranes
Procedure, shortened: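 Affinity given as nanomolar Ki or as % inhibition at c=1 μM. Membranes of CHO cells expressing recombinant ORL1 (20 μg protein) were incubated one hour at room temperature with 0.5 nM 3H-nociceptin/orphanin FQ in Hepes 50 mM, pH 7.4, plus MgCl2 and EDTA; bound ligand detected by SPA bead scintillation counting.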

human μ-opiate receptor = biological target: T2, human μ-opiate receptor (Homo sapiens, UniProt P35372); test: μ-opiate receptor binding assay with [3H] naloxone (WGA-SPA beads); conditions: 1 μmol/l test substance, 1 nmol/l [3H] naloxone, CHO-K1 cell membranes expressing human μ-opiate receptor
T2 construct: purchased NEN, Zaventem, Belgium RB-HOM; host or cells: CHO-K1 cells (membrane preparation)
Procedure, shortened: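 Scintillation proximity readout: [3H]naloxone (1 nmol/l) displacement measured after 90 min, room temperature, on human μ-receptor CHO-K1 membranes in Tris-HCl/azide/BSA buffer; 25 μmol/l naloxone defined non-specific binding. Values are % specific-binding inhibition at 1 μmol/l, or Ki from IC50 (Cheng-Prusoff).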

T2 sequence (P35372 whole entry): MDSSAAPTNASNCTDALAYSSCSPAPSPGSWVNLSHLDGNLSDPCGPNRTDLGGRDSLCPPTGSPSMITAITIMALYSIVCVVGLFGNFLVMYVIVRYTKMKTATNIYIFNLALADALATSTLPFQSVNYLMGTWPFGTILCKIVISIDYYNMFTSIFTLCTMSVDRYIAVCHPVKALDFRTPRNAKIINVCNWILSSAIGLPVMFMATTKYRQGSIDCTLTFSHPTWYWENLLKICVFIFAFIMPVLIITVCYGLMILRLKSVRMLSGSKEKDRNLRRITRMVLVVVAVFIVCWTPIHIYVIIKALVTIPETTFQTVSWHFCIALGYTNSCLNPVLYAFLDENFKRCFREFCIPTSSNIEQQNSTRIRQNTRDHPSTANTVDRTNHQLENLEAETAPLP
T1 sequence (P41146 whole entry): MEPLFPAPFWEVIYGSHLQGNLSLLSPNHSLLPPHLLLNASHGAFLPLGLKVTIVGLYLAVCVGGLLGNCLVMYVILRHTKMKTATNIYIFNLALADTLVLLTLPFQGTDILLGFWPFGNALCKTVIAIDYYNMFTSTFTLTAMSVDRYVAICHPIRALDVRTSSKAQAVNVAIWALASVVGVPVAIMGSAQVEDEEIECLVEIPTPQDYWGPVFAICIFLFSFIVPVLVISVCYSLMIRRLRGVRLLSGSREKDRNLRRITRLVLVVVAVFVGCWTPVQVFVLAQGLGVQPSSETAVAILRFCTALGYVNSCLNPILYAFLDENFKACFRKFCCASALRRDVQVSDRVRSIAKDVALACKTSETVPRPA

`CN(C)C1(c2ccccc2)CCN(C(=O)C2CN(C(=O)Cc3c[nH]c4cc(F)ccc34)c3ccccc32)CC1` (centres unmarked) [Example 86, 1-(3-(4-(dimethylamino)-4-phenylpiperidine-1-carbonyl)indolin-1-yl)-2-(6-fluoro-1H-indol-3-yl)ethanone] showed an inhibition at 1 µM (ORL1 receptor) of 94% and an inhibition at 1 µM (human μ-opiate receptor) of 88%.

`CN(C)C1(c2ccccc2)CCN(C(=O)CCNCc2c[nH]c3ccccc23)CC1` [Example 139, 3-((1H-indol-3-yl)methylamino)-1-(4-(dimethylamino)-4-phenylpiperidin-1-yl)propan-1-one] gave an inhibition at 1 µM (ORL1 receptor) of 74% and an inhibition at 1 µM (human μ-opiate receptor) of 90%.

In the case of `CN(C)C1(c2cccs2)CCN(C(=O)CNC(=O)C2CCCc3c2[nH]c2ccc(Cl)cc32)CC1` (centres unmarked) [Example 116, 6-chloro-N-(2-(4-(dimethylamino)-4-(thiophen-2-yl)piperidin-1-yl)-2-oxoethyl)-2,3,4,9-tetrahydro-1H-carbazole-1-carboxamide], the inhibition at 1 µM (ORL1 receptor) is reported as 50% and the inhibition at 1 µM (human μ-opiate receptor) is reported as 83%.

`CN(CCCN1CCC(c2ccccc2)(N(C)C)CC1)C(=O)c1cc2cc(F)ccc2[nH]1` [Example 53, N-(3-(4-(Dimethylamino)-4-phenylpiperidin-1-yl)propyl)-5-fluoro-N-methyl-1H-indole-2-carboxamide] showed an inhibition at 1 µM (ORL1 receptor) of 73% and an inhibition at 1 µM (human μ-opiate receptor) of 90%.

`CC(C)C(C(=O)N1CCC(c2ccccc2)(N(C)C)CC1)N(C)C(=O)CCc1c[nH]c2ccccc12` (centres unmarked) [Example 94, N-(1-(4-(dimethylamino)-4-phenylpiperidin-1-yl)-3-methyl-1-oxobutan-2-yl)-3-(1H-indol-3-yl)-N-methylpropanamide] was tested, and the inhibition at 1 µM (ORL1 receptor) was 82% and the inhibition at 1 µM (human μ-opiate receptor) was 71%.

In the case of `CN(CCN1CCC(c2ccccc2)(N(C)C)CC1)C(=O)C1CCCc2c1[nH]c1ccc(Cl)cc21` (centres unmarked) [Example 25, 6-Chloro-N-(2-(4-(dimethylamino)-4-phenylpiperidin-1-yl)ethyl)-N-methyl-2,3,4,9-tetrahydro-1H-carbazole-1-carboxamide], the “% Inhibition (ORL1) at 1 μM” value (ORL1 receptor) is reported as 62% and the “% Inhibition (μ) at 1 μM” value (human μ-opiate receptor; 1 µM) is reported as 86%.

`CCCCC1(N(C)C)CCN(CCN(C)Cc2ccc3cc[nH]c3c2)CC1` [Example 144, 1-(2-(((1H-indol-6-yl)methyl)(methy)amino)ethyl)-4-butyl-N,N-dimethylpiperidin-4-amine] was tested, and the “% Inhibition (ORL1) at 1 μM” value (ORL1 receptor) was 39% and the “% Inhibition (μ) at 1 μM” value (human μ-opiate receptor) was 90%.

For `CCCCC1(N(C)C)CCN(CCN(C)C(=O)Cc2c[nH]c3cc(F)ccc23)CC1` [Example 112, N-(2-(4-butyl-4-(dimethylamino)piperidin-1-yl)ethyl)-2-(6-fluoro-1H-indol-3-yl)-N-methylacetamide], the inhibition at 1 µM (ORL1 receptor) was 59% and the inhibition at 1 µM (human μ-opiate receptor) was 92%.

`CC(C)C(CC(=O)N1CC(C(=O)N2CCC(c3ccccc3)(N(C)C)CC2)c2ccccc21)c1c[nH]c2ccccc12` (centres unmarked) [Example 89, 1-(3-(4-(dimethylamino)-4-phenylpiperidine-1-carbonyl)indolin-1-yl)-3-(1H-indol-3-yl)-4-methylpentan-1-one] gave an inhibition at 1 µM (ORL1 receptor) of 91% and an inhibition at 1 µM (human μ-opiate receptor) of 94%.

`CCCCC1(N(C)C)CCN(CCN(C)C(=O)c2cc3cc(F)ccc3[nH]2)CC1` [Example 52, N-(2-(4-Butyl-4-(dimethylamino)piperidin-1-yl)ethyl)-5-fluoro-N-methyl-1H-indole-2-carboxamide] gave an inhibition at 1 µM (ORL1 receptor) of 28% and an inhibition at 1 µM (human μ-opiate receptor) of 65%.

For `COc1ccc2c(CN3CCCC(C(=O)N4CCC(c5ccccc5)(N(C)C)CC4)C3)c(C)n(C)c2c1` (centres unmarked) [Example 176, (4-(dimethylamino)-4-phenylpiperidin-1-yl)(1-((6-methoxy-1,2-dimethyl-1H-indol-3-yl)methyl)piperidin-3-yl)methanone], the inhibition at 1 µM (ORL1 receptor) was 53% and the inhibition at 1 µM (human μ-opiate receptor) was 61%.

Compound `CN(CCCN1CCC(c2cccs2)(N(C)C)CC1)C(=O)CCc1c[nH]c2ccccc12` [Example 21, N-(3-(4-(Dimethylamino)-4-(thiophen-2-yl)piperidin-1-yl)propyl)-3-(1H-indol-3-yl)-N-methylpropanamide] has an inhibition at 1 µM (ORL1 receptor) of 62% and an inhibition at 1 µM (human μ-opiate receptor) of 87%.

`CN(CCCN1CCC(c2cccs2)(N(C)C)CC1)C(=O)CCc1cn(C)c2ccccc12` [Example 13, N-(3-(4-(Dimethylamino)-4-(thiophen-2-yl)piperidin-1-yl)propyl)-N-methyl-3-(1-methyl-1H-indol-3-yl)propanamide] showed an inhibition at 1 µM (ORL1 receptor) of 35% and an inhibition at 1 µM (human μ-opiate receptor) of 80%.

`CC(CC(=O)N(C)CCN1CCC(c2ccccc2)(N(C)C)CC1)c1c[nH]c2ccccc12` (centres unmarked) [Example 20, N-(2-(4-(Dimethylamino)-4-phenylpiperidin-1-yl)ethyl)-3-(1H-indol-3-yl)-N methylbutanamide] was tested, and the inhibition at 1 µM (ORL1 receptor) was 68% and the inhibition at 1 µM (human μ-opiate receptor) was 88%.

`CC(C)C(C(=O)N1CCC(c2ccccc2)(N(C)C)CC1)N(C)C(=O)Cc1c[nH]c2ccc(Br)cc12` (centres unmarked) [Example 83, 2-(5-bromo-1H-indol-3-yl)-N-(1-(4-(dimethylamino)-4-phenylpiperidin-1-yl)-3-methyl-1-oxobutan-2-yl)-N-methylacetamide] gave an inhibition at 1 µM (ORL1 receptor) of 95% and an inhibition at 1 µM (human μ-opiate receptor) of 84%.

Work on `CCCCC1(N(C)C)CCN(CCN(C)C(=O)c2cccc3c2ccn3C)CC1` [Example 41, N-(2-(4-Butyl-4-(dimethylamino)piperidin-1-yl)ethyl)-N,1-dimethyl-1H-indole-4-carboxamide] yielded an inhibition at 1 µM (ORL1 receptor) of 17% and an inhibition at 1 µM (human μ-opiate receptor) of 63%.

`CN(C)C1(c2cccs2)CCN(CCNCc2c[nH]c3ccccc23)CC1` [Example 179, 1-(2-((1H-indol-3-yl)methylamino)ethyl)-N,N-dimethyl-4-(thiophen-2-yl)piperidin-4-amine] gave an inhibition at 1 µM (ORL1 receptor) of 97% and an inhibition at 1 µM (human μ-opiate receptor) of 76%.

Compound `CN(C)C1(c2ccccc2)CCN(C(=O)CCNC(=O)c2ccc3cc[nH]c3c2)CC1` [Example 113, N-(3-(4-(dimethylamino)-4-phenylpiperidin-1-yl)-3-oxopropyl)-1H-indole-6-carboxamide] has an inhibition at 1 µM (ORL1 receptor) of 57% and an inhibition at 1 µM (human μ-opiate receptor) of 89%.

`CN(CCCN1CCC(c2cccs2)(N(C)C)CC1)C(=O)c1ccc2ccn(C)c2c1` [Example 28, N-(3-(4-(Dimethylamino)-4-(thiophen-2-yl)piperidin-1-yl)propyl)-N,1-dimethyl-1H-indole-6-carboxamide] showed an inhibition at 1 µM (ORL1 receptor) of 36% and an inhibition at 1 µM (human μ-opiate receptor) of 88%.

In the case of `COc1ccc2[nH]cc(CNCCN3CCC(c4cccs4)(N(C)C)CC3)c2c1` [Example 188, 1-(2-((5-methoxy-1H-indol-3-yl)methylamino)ethyl)-N,N-dimethyl-4-(thiophen-2-yl)piperidin-4-amine], the inhibition at 1 µM (ORL1 receptor) is reported as 85% and the inhibition at 1 µM (human μ-opiate receptor) is reported as 99%.

`CN(C)C1(c2ccccc2)CCN(C(=O)C2CCCN(C(=O)c3ccc4ccn(C)c4c3)C2)CC1` (centres unmarked) [Example 128, (4-(dimethylamino)-4-phenylpiperidin-1-yl)(1-(1-methyl-1H-indole-6-carbonyl)piperidin-3-yl) methanone] showed an inhibition at 1 µM (ORL1 receptor) of 39% and an inhibition at 1 µM (human μ-opiate receptor) of 56%.

`CC(C)C(CC(=O)NCC(=O)N1CCC(c2cccs2)(N(C)C)CC1)c1c[nH]c2ccccc12` (centres unmarked) [Example 88, N-(2-(4-(dimethylamino)-4-(thiophen-2-yl)piperidin-1-yl)-2-oxoethyl)-3-(1H-indol-3-yl)-4-methylpentanamide] showed an inhibition at 1 µM (ORL1 receptor) of 92% and an inhibition at 1 µM (human μ-opiate receptor) of 94%.

`CN(C)C1(c2ccccc2)CCN(C(=O)C2CCCN(Cc3cccc4[nH]ccc34)C2)CC1` (centres unmarked) [Example 161, (1-((1H-indol-4-yl)methyl)piperidin-3-yl)(4-(dimethylamino)-4-phenylpiperidin-1-yl)methanone] gave an inhibition at 1 µM (ORL1 receptor) of 15% and an inhibition at 1 µM (human μ-opiate receptor) of 66%.

In the case of `CC(C)C(CC(=O)N(C)CCCN1CCC(c2cccs2)(N(C)C)CC1)c1c[nH]c2ccccc12` (centres unmarked) [Example 23, N-(3-(4-(Dimethylamino)-4-(thiophen-2-yl)piperidin-1-yl)propyl)-3-(1H-indol-3-yl)-N,4-dimethylpentanamide], the inhibition at 1 µM (ORL1 receptor) is reported as 53% and the inhibition at 1 µM (human μ-opiate receptor) is reported as 86%.

With `CN(CCN1CCC(c2ccccc2)(N2CCCC2)CC1)Cc1ccc2[nH]ccc2c1` [Example 140, N-((1H-indol-5-yl)methyl)-N-methyl-2-(4-phenyl-4-(pyrrolidin-1-yl)piperidin-1-yl)ethanamine] the inhibition at 1 µM (ORL1 receptor) was 17% and the inhibition at 1 µM (human μ-opiate receptor) was 54%.

`CN(CCN1CCC(c2ccccc2)(N(C)C)CC1)C(=O)c1cc2cc(F)ccc2[nH]1` [Example 3, N-(2-(4-(Dimethylamino)-4-phenylpiperidin-1-yl)ethyl)-5-fluoro-N-methyl-1H-indol-2-amide] was tested, and the “% Inhibition (ORL1) at 1 μM” value (ORL1 receptor) was 90% and the “% Inhibition (μ) at 1 μM” value (human μ-opiate receptor; 1 µM) was 92%.

`CC(C)C(CC(=O)N(C)CCCN1CCC(c2ccccc2)(N(C)C)CC1)c1c[nH]c2ccccc12` (centres unmarked) [Example 34, N-(3-(4-(Dimethylamino)-4-phenylpiperidin-1-yl)propyl)-3-(1H-indol-3-yl)-N,4-dimethylpentanamide] gave an inhibition at 1 µM (ORL1 receptor) of 43% and an inhibition at 1 µM (human μ-opiate receptor) of 88%.

`CN(Cc1ccc2[nH]ccc2c1)C(C(=O)N1CCC(c2cccs2)(N(C)C)CC1)c1ccccc1` (centres unmarked) [Example 147, 2-(((1H-indol-5-yl)methyl)(methyl)amino)-1-(4-(dimethylamino)-4-(thiophen-2-yl)piperidin-1-yl)-2-phenylethanone] gave an inhibition at 1 µM (ORL1 receptor) of 27% and an inhibition at 1 µM (human μ-opiate receptor) of 47%.
